Key:
NF-κB P65 = NF-κB P65 in retinal nuclear extracts (ELISA); format: in vivo, Lewis rats; settings: AICAR pretreatment; 3 hours after LPS; n=9; PBS-treated EIU 27.3±11.0, control 8.3±8.6
Protocol: Male Lewis rats ranging from 6-8 weeks old (Charles River, Wilmington, Mass.) were used for these studies. To study the effects of AICAR pretreatment, AICAR and PBS (for placebo treatment) were delivered via intraperitoneal injection of AICAR (50 mg/kg or 100 mg/kg body weight; Sigma) diluted in 150 μl PBS or equal volume of PBS at 6 hours before and at the same time as LPS injection. Four experimental groups of rats were compared: (1) Normal: no treatment (2) AICAR: normal rats treated with AICAR 6 hours before examination; (3) LPS: EIU rats treated with PBS; (4) LPS+AICAR: EIU rats treated with AICAR. Two additional groups of rats were used to study the effects of AICAR (50 mg/kg) given either at the same time as LPS injection or at 6 hours after LPS injection. To investigate the LPS-induced signal transduction pathway, NF-κB P65 protein levels translocated into the nuclei of retinal cell extracts were examined 3 hours after LPS injection. For the measurement of NF-κB activity, pooled retinas from six normal rats, nine EIU PBS-treated rats, and nine EIU AICAR-treated rats were analyzed. […] The amount of NF-κB in the nuclear extracts was analyzed by measuring the p65 protein levels with a NF-κB detection kit (p65 Transcription Factor Assay kit; Active Motif, Carlsbad, Calif.). NF-κB concentration was calculated and corrected for protein concentration.

[1] = tested on: IRBP-reactive T cells (LN cells); experiment: LN cells from untreated EAU mice cultured with IRBP peptide in the presence of AICAR; format: cell-based
Protocol: To measure cell proliferation, LN cells were resuspended at 5×10^5 cells per 200 μl of medium in 96-well flat-bottom plates. Cells were incubated for 72 hours and proliferation during the last 12 hours was measured by using a bromodeoxyuridine (BrdU) cell proliferation assay kit (Millipore, Billerica, Mass.). Supernatant in the culture medium was collected at 48 hours and cytokine production in the supernatant was measured by ELISA using the Quantikine mouse IFN-γ, IL-4, IL-10 and IL-17 kits (R&D system, Minneapolis, Minn.).
To assess the effect of AICAR on already developed IRBP-specific T cells, LN cells from untreated EAU mice were cultured with IRBP peptide in the presence of AICAR (FIGS. 10A-10E). Specifically, LN cells were resuspended at 5×10^5 cells per 200 μl of medium in 96-well flat-bottom plates. Triplicate samples of cells were stimulated with or without IRBP at the indicated concentrations. AICAR was added at the indicated concentrations. Cell proliferation and cytokine production were measured as previously described in Example 10.

[2] = tested on: CD4+CD25+Foxp3+ Treg population; experiment: Treg population in LN cells of EAU mice (flow cytometry); format: in vivo, C57BL/6 (WT) mice; settings: control vs AICAR-treated mice; 21 days after immunization
Source text: The effect of AICAR on the regulatory T (Treg) cell population in the EAU mice was also directly assessed. Specifically, LN cells from five mice were harvested at 21 days after immunization and stained with a mouse regulatory T cell staining kit #2 (eBioscience) according to manufacturer's instructions. CD4^+CD25^+Foxp3^+ Treg populations were subsequently detected by flow cytometry.

CCL2/MCP-1 = CCL2/MCP-1 ELISA in aqueous humor, retina and serum of EIU rats; format: in vivo, Lewis rats; settings: LPS + AICAR
Protocol: Male Lewis rats ranging from 6-8 weeks old (Charles River, Wilmington, Mass.) were used for these studies. To study the effects of AICAR pretreatment, AICAR and PBS (for placebo treatment) were delivered via intraperitoneal injection of AICAR (50 mg/kg or 100 mg/kg body weight; Sigma) diluted in 150 μl PBS or equal volume of PBS at 6 hours before and at the same time as LPS injection. Four experimental groups of rats were compared: (1) Normal: no treatment (2) AICAR: normal rats treated with AICAR 6 hours before examination; (3) LPS: EIU rats treated with PBS; (4) LPS+AICAR: EIU rats treated with AICAR. Two additional groups of rats were used to study the effects of AICAR (50 mg/kg) given either at the same time as LPS injection or at 6 hours after LPS injection. Under deep anesthesia, experimental rats were sacrificed and the retinas were carefully removed 24 hours after LPS injection, placed into 200 μl of lysis buffer and then sonicated. The lysate was centrifuged at 13,000 rpm for 10 minutes at 4° C. and supernatant was isolated. Three hours after LPS injection, blood samples were collected from the heart and subsequently centrifuged at 3000 rpm for 30 minutes at 4° C., and serum samples were separated. Cytokine and chemokine levels in the serum, aqueous humor, and retina were assessed using the rat CCL2/MCP-1 kit (Invitrogen, Camarillo, Calif.), the rat TNF-α kit (R&D system, Minneapolis, Minn.) and the rat ICAM-1 kit (R&D systems) by ELISA.

[3] = tested on: endotoxin-induced uveitis (EIU); experiment: Histopathologic evaluation of EIU eyes (iris-ciliary body); format: in vivo, Lewis rats; settings: AICAR 50 mg/kg pretreatment, 24 h after LPS
Protocol: Male Lewis rats ranging from 6-8 weeks old (Charles River, Wilmington, Mass.) were used for these studies. To study the effects of AICAR pretreatment, AICAR and PBS (for placebo treatment) were delivered via intraperitoneal injection of AICAR (50 mg/kg or 100 mg/kg body weight; Sigma) diluted in 150 μl PBS or equal volume of PBS at 6 hours before and at the same time as LPS injection. Four experimental groups of rats were compared: (1) Normal: no treatment (2) AICAR: normal rats treated with AICAR 6 hours before examination; (3) LPS: EIU rats treated with PBS; (4) LPS+AICAR: EIU rats treated with AICAR. Two additional groups of rats were used to study the effects of AICAR (50 mg/kg) given either at the same time as LPS injection or at 6 hours after LPS injection. For histopathologic evaluations, EIU rats were euthanized 24 hours after LPS injection. The eyes were enucleated immediately and stored in 10% formalin solution. The eyes were then embedded in paraffin, and 10 μm sagittal sections were cut and stained with hematoxylin and eosin. For histopathologic evaluation, the anterior chamber and posterior chamber around the iris-ciliary body complex were examined with light microscopy.

NC(=O)c1ncn([C@@H]2O[C@H](CO)[C@@H](O)[C@H]2O)c1N [AICAR, 5-aminoimidazole-4-carboxamide-1-β-d-ribofuranoside]
NF-κB P65 protein level in retinal nuclear extracts (NF-κB P65): 18.2±3.9 ng/mg total protein
IFN-γ production in vitro [1]: suppressed
IL-4 production in vitro [1]: not significantly induced
IL-10 production in vitro [1]: suppressed
IL-17 production in vitro [1]: suppressed
T cell proliferation in vitro [1]: suppressed
CD4+CD25+Foxp3+ Treg population [2]: not significantly different
MCP-1 in serum (CCL2/MCP-1; 3 hours after LPS, n=11, LPS 6.8 ± 0.5): 0.4 ± 0.2 ng/mL
MCP-1 in aqueous humor (CCL2/MCP-1; 24 h after LPS, n=12, LPS 4.4 ± 3.9): 0.8 ± 1.0 ng/mL
MCP-1 in retina (CCL2/MCP-1; 24 h after LPS, n=14, LPS 18.7 ± 11.3): 8.8 ± 2.9 pg/total retinal protein
Number of leukocytes infiltrated around the iris-ciliary body (histopathology) [3]: suppressed

From patent US10842806B2, “Methods for treating ocular inflammatory disorders” (Massachusetts Eye and Ear Infirmary, priority 2011, dated 2020)
